The record followed here is patent publication US8013016B2, “Use of acetyl L-carnitine for the treatment of fibromyalgic syndrome” (Sigma-Tau Industrie Farmaceutiche Riunite S.p.A., priority 2004, dated 2011).

Assay [1] has as its system patients with fibromyalgic syndrome. The assay can be described thus: Same clinical trial: secondary clinical parameters assessed with visual analogue scales. The format is in vivo, human. The settings on record: end of the treatment period (10 weeks), 1,500 mg/day; P<0.05. Here is the method:
(§1) A multicentre, randomized, placebo-controlled, double-blind clinical trial was conducted, the aim of which was to evaluate the efficacy of acetyl L-carnitine in patients with fibromyalgic syndrome.
Also monitored were additional secondary parameters which will be discussed later.
Acetyl L-carnitine was administered for a period of 10 consecutive weeks at a dose of 1,500 mg/day.
During the first two weeks it was administered at the dose of 500 mg by the intramuscular route (i.m.) and 500 mg (twice daily) by the oral route (os).
Over the following eight weeks acetyl L-carnitine was administered orally at doses of 500 mg three times daily.

The test system is the same in assay [2]. The assay can be described thus: Multicentre, randomized, placebo-controlled, double-blind clinical trial: evoked pain at ACR tender points (Pressure Threshold Meter algometer). The format is in vivo, human. The settings on record: for Mean variation compared to baseline (evoked pain at ACR tender points, algometer): N = 42. The procedure:
as §1
For the evaluation of the efficacy of the compound according to the present invention evoked pain was monitored (as measured with the “Pressure Threshold Meter” algometer) in the osteoarticular regions indicated by “The American College of Rheumatology” (ACR) as being “tender points” characteristic of fibromyalgia syndrome. [WOLFE F, SMYTHE H A, YUNUS M B, et al. The American College of Rheumatology Criteria for the classification of fibromyalgia: report of the multicenter criteria committee; Arthritis Rheum 1990; 33(2): 160-172].
The patients included in the trial were patients of either gender aged from 25 to 65 years, who matched up to the above-mentioned American College of Rheumatology diagnostic criteria for fibromyalgia syndrome.
The diagnostic criteria for fibromyalgic syndrome had to be confirmed by the presence of all four of the following conditions: • bilateral diffuse pain in the axial skeleton; • bilateral diffuse pain in the upper limbs; • bilateral diffuse pain in the lower limbs; • pain located in 11 or more of the 18 anatomical regions listed in the map of tender points (ACR tender points) evoked with a standardised pressure manoeuvre.
Patients with any one of the following conditions were not recruited into the trial: • presence of infections or inflammatory processes affecting the osteoarticular or tegumental apparatus; • history or presence of clinically important osteoarticular disease capable of confounding the evaluation of the study treatments (e.g. history of trauma); • previous orthopaedic surgery, spondyloarthrosis, connectivitis etc.; • clinical or laboratory evidence of dysthyroidism; • presence of systemic diseases (diabetes, kidney, cardiovascular and respiratory disease, psychiatric illness) or major pathological conditions capable of interfering with the evaluation of the study treatments; • continuous use of anti-inflammatory steroids during the last 3 months prior to the trial; • recent initiation of oestrogen-progestogen hormone replacement therapy (<1 year); • therapy with antidepressant drugs during the last 6 months prior to the trial; • therapy with non-steroidal anti-inflammatory drugs during the last 3 days prior to the trial; • therapy with analgesic drugs during the last 7 days prior to the trial; • participation in a clinical trial during the previous 6 months; • pregnant women, breastfeeding women, or women of childbearing age not adopting an adequate contraceptive method.
Acetyl L-carnitine was administered for a period of 10 consecutive weeks at a dose of 1,500 mg/day. […]

`CC(=O)O[C@H](CC(=O)[O-])C[N+](C)(C)C` [Acetyl L-carnitine, acetyl L-carnitine]: in assay [1], the “General well-being (visual analogue scale)” value is “statistically significant improvements”, the “Mental health (visual analogue scale)” value is on record as “statistically significant improvements” and the “Physical health in general (visual analogue scale)” value is “statistically significant improvements”. The “Improvement in pain evoked in the osteoarticular regions (ACR tender points) as compared to the control group” value in assay [2] (end of therapy (10 weeks), 1,500 mg/day, vs placebo) is listed as “statistically significant improvement”. For the same compound, in assay [2] (visit 2 weeks, 1,500 mg/day (500 mg i.m. + 500 mg twice daily os), placebo 0.16 (0.39)), the “Mean variation compared to baseline (evoked pain at ACR tender points, algometer)” value (from here on “Mean variation compared to baseline”) was 0.24 (0.64). In addition, the “Mean variation compared to baseline” value in assay [2] (visit 6 weeks, 1,500 mg/day (first 2 weeks i.m. + os, then 500 mg three times daily os), placebo 0.45 (0.57)) is on record as 0.55 (0.64). In assay [2] (visit 10 weeks (end of therapy), 1,500 mg/day, placebo 0.34 (0.66), P<0.05 Student's t-test), the “Mean variation compared to baseline” value was 0.71 (0.71).
